According to paper PMC9582434, “Ryanodine receptor-active non-dioxin-like polychlorinated biphenyls cause neurobehavioral deficits in larval zebrafish” (Frontiers in Toxicology, 2022):
Entries after “also recorded” stand apart in the source; their conditions may differ.

Key:
[1] = system: RYR; design: method as in Pessah et al., 2006; Holland et al., 2017a; details: ref Pessah et al., 2006; Holland et al., 2017a; cited from earlier work
[2] = system: RYR paralogs found in zebrafish skeletal muscle; assay: [3H]ryanodine ligand binding assay, adult zebrafish tail muscle microsomes; details: for EC50: relative EC50, concentration causing half-maximum response, PCB 0.1–50 μM; for RYR activity (in words): zebrafish muscle; for EC2X: concentration causing two-fold induction in ligand binding vs DMSO control; for Max. response SEM (%): maximum [3H]Ry binding response compared to DMSO control, mean ± SEM
Method: Sensitization of the zebrafish RYR by ortho-PCBs was measured using [^3H]ryanodine ([^3H]Ry) ligand binding assays as previously described ([Fritsch and Pessah, 2013]). Briefly, crude microsomal protein preparations were created from the tail (post dorsal fin) muscle (primarily white skeletal muscle) of six adult zebrafish (∼1 year old) that was homogenized in a buffer containing 320 mM sucrose, 5 mM HEPES, 1 mM PMSF, 10 mM NaF, 2 mM β-Glycerol, 5 mM Na4P2O7, 0.5 mM Na3VO4 and 2 μg/L leupeptin (pH 7.2). The homogenate was centrifuged at 5,000 × g (4°C) for 15 min. The pellet was re-homogenized in 5 ml homogenization buffer and centrifuged at 5,000 × g. Supernatants were combined for ultracentrifugation at 100,000 g (4°C for 1 h). The resultant pellet was re-suspended in a buffer of 320 mM sucrose and 5 mM HEPES (Sigma-Aldrich, St. Louis, MO, United States) at pH 7.2. Protein concentrations were determined in triplicate using a BCA Assay (Fisher Scientific, Waltham, MA, United States). [^3H]Ry ligand binding assays were conducted with 40 μg/ml of the crude protein homogenate in the presence of DMSO (0.5%) or 0.1–50 μM of individual PCB congeners in 0.5% DMSO. Tests were run using 5 nM [^3H]Ry (Perkin Elmer Waltham, MA, United States), 250 mM KCl, 20 mM HEPES, 15 mM NaCl, and 50 μM CaCl2 (pH 7.1) and incubated for 16 h at 25°C. Non-specific binding was determined with the addition of 10 µM ryanodine (Tocris Bioscience, Bristol, United Kingdom) and 200 μM EGTA (Sigma-Aldrich, St. Louis, MO, United States). Assays were terminated by rapid filtration through Whatman GF/B filter paper (Brandel, Gaithersburg, MD, United States) and washed with ice-cold buffer containing 140 mM KCl, 10 mM HEPES, and 0.1 mM CaCl2, pH 7.4. Bound radioligand was measured by liquid scintillation counting (Beckman Coulter, Indianapolis, IN, United States). PCB-induced [^3H]Ry binding was assessed in two different protein preparations, and each assay was run in triplicate. Individual PCB concentration-response curves were determined using non-linear regression (GraphPad Prism 6.0, GraphPad Software Inc., San Diego, CA, United States).

[3] = PCB body burden in larvae at 5 dpf by gas chromatography; assay type: in vivo, zebrafish; details: for % uptake (measured uptake/theoretical uptake × 100): averaged across 0.1, 1 and 10 µM, larvae at 5 dpf; for larval body burden relative to the other tested PCBs: exposure 6 hpf to 5 dpf
Method: PCB body burden was assessed at 5 dpf by pressurized liquid extraction Dionex ASE200 system (Thermo Scientific, Sunnyvale, CA, United States) ([Wu et al., 2015]). Briefly, zebrafish larvae samples (n = 36–51 per sample) were mixed with diatomaceous earth (2 g) and placed in an extraction cell (33 ml) containing Florisil (60–100 mesh, 12 g, Fisher Scientific, Fair Lawn, NJ, United States). PCB 117 (100 ng) was added to each sample as surrogate recovery standard, and the cells were extracted with hexane-acetone (1:1, v/v) at 100°C and 1,500 psi (10 MPa) with preheat equilibration for 6 min, 35% of cell flush volume and 1 static cycle of 5 min. Method blanks containing only Florisil and diatomaceous earth and sample blanks with naïve (unexposed) and/or DMSO-exposed zebrafish larvae were extracted in parallel with each sample set. The extracts were concentrated to approximately 0.75 ml using a Turbo Vap II (Biotage, Charlotte, NC, United States) and transferred to glass tubes. Samples were further cleaned up, as described previously, to remove sulfur and other impurities ([Kania-Korwel et al., 2007]). All samples were spiked with PCB 204 (100 ng) as internal standard (volume corrector) prior to gas chromatographic analysis.
Analysis of PCBs was performed in the splitless mode on an Agilent 7890 gas chromatograph equipped with a ^63Ni micro electron capture detector (µECD) and a SPB-1 capillary column (length, 60 m; inner diameter, 250 μm; and 0.25 µm film thickness; Supelco, St. Louis, MO, United States) ([Wu et al., 2013]). The following temperature program was used based on a published method ([Kania-Korwel et al., 2011]): hold at 80°C for 1 min, 20°C/min to 215°C, then 0.1°C/min to 219.5°C, and 20°C/min to 280°C, then hold at 280°C for 3 min. A constant helium flow rate of 1 ml/min was used for all analyses. The injector and detector temperatures were 250°C and 300°C, respectively. The ^63Ni-μECD used for the PCB analysis was linear up to concentrations of 1,000 ng/ml for all analytes investigated (R ^2 > 0.999). The recovery of PCB 117 was 83 ± 7% (range: 71–97%). A detailed summary of the limits of detection, limits of quantification, and background levels of the analyzed PCBs is presented in Supplementary Table S1.
The neurotoxic potential of the congeners tested in this study were ranked based on the three endpoints measured in this study: RYR binding, behavior, and body burden. Congeners were ranked relative to each other for each individual endpoint from 1 (highest) to 6 (lowest), and then the three scores for each congener averaged to obtain an overall relative ranking for each congener. Ranking for RYR activation was based on EC2X values and their relative comparisons. Behavior ranking represents the total change from control for each congener across all epochs (L1, D1, L2, and D2) and all days (3, 4, and 5 dpf) tested. AUC values were normalized to the appropriate DMSO control (AUC value/DMSO). Each value was then subtracted from 1 to determine the deviation from the control values [1 − (AUC value/DMSO)]. Absolute values were combined for all concentrations of each congener across all time points (epochs and testing days). PCB body burden was ranked as the percentage uptake using the following calculation: (uptake/total PCB) × 100, where, the uptake values were the measured PCB levels in the samples, and the total PCB values were calculated using the exposure concentration (0.1, 1, or 10 μM) and volume (200 μl). The resulting values were averaged across the three assayed concentrations and rounded to the closest integer to obtain the final ranking order.

SMILES	in vitro potency at the RYR (in words) [1]	concentration failing to cause a 2-fold (EC2X) increase in channel activity [2]	EC50 [2] [µM]	RYR activity (in words) [2]	% uptake (measured uptake/theoretical uptake × 100) [3] [%]	EC2X [2]	Max. response SEM (%) [2] [%]	larval body burden relative to the other tested PCBs [3]	increase in [3H]Ry-binding ([2]; measure of channel activation) [%]	maximal effect compared to the DMSO control ([2]; concentrations above 3 µM) [%]	change in RYR activity at low concentrations ([2]; concentrations below 3 µM, biphasic effect)
Clc1ccc(-c2ccc(Cl)c(Cl)c2)c(Cl)c1 [PCB 66]	negligible	above 10 µM	> 50	negligible; also recorded: limited	5.6						
Clc1cc(Cl)c(-c2cc(Cl)c(Cl)cc2Cl)cc1Cl [PCB 153, 2,2',4,4',5,5'-Hexachlorobiphenyl]	moderate		4.34	moderate	1.4	3.88	320.40 ± 92.18	lowest			
Clc1ccc(-c2ccc(Cl)cc2Cl)cc1 [PCB 28]	negligible	above 10 µM	0.67	limited	4.5		170.60 ± 13.28				
Clc1cc(Cl)c(-c2ccc(Cl)c(Cl)c2Cl)cc1Cl [PCB 138]	moderate		9.6	moderate	13.8	4.18	388.20 ± 74.93	highest			
Clc1ccc(Cl)c(-c2c(Cl)ccc(Cl)c2Cl)c1 [PCB 95, 2,2',3,5',6-pentachlorobiphenyl]	potent		3.79	high	7.4	1.5	734.70 ± 49.87		~800		
Clc1cccc(-c2c(Cl)ccc(Cl)c2Cl)c1Cl [PCB 84]	potent		8.97		9.2	6.97	437.50 ± 35.72			400	significant reduction
